In PubChem BioAssay AID1919002 (Molecular Pharmacology Branch, DTP, NCI, 2023):

System: 743489-274-T-PDC complex spheroid growth
Experiment: Anticancer human tumor 743489-274-T-PDC patient-derived renal cell carcinoma cell line growth inhibition [AhR]
Settings: for IC50: curve of first compound; for viability, T/C: stronger effect = lower value
Method in brief: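 Spheroids combined tumor cells with HUVEC endothelial cells and human MSCs as stroma. AhR antagonists were paired with standard or investigational drugs, each dosed in half-log steps down from near clinical Cmax, or from 10 microM where Cmax was unknown.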

[1] = second compound 0.1 µM, first compound 0.0316 µM
[2] = second compound 0.1 µM, first compound 0.1 µM
[3] = second compound 0.316 µM, first compound 0.0316 µM
[4] = second compound 0.316 µM, first compound 0.1 µM
[5] = second compound 1 µM, first compound 0.0316 µM
[6] = second compound 1 µM, first compound 0.1 µM
[7] = second compound 3.16 µM, first compound 0.0316 µM
[8] = second compound 3.16 µM, first compound 0.1 µM
[9] = second compound 10 µM, first compound 0.0316 µM
[10] = second compound 10 µM, first compound 0.1 µM
[11] = second compound 0.1 µM, first compound 0.00949 µM
[12] = second compound 0.1 µM, first compound 0.03 µM
[13] = second compound 0.1 µM, first compound 0.0949 µM
[14] = second compound 0.1 µM, first compound 0.3 µM
[15] = second compound 0.316 µM, first compound 0.00949 µM
[16] = second compound 0.316 µM, first compound 0.03 µM
[17] = second compound 0.316 µM, first compound 0.0949 µM
[18] = second compound 0.316 µM, first compound 0.3 µM
[19] = second compound 1 µM, first compound 0.00949 µM
[20] = second compound 1 µM, first compound 0.03 µM
[21] = second compound 1 µM, first compound 0.0949 µM
[22] = second compound 1 µM, first compound 0.3 µM
[23] = second compound 3.16 µM, first compound 0.00949 µM
[24] = second compound 3.16 µM, first compound 0.03 µM
[25] = second compound 3.16 µM, first compound 0.0949 µM
[26] = second compound 3.16 µM, first compound 0.3 µM
[27] = second compound 10 µM, first compound 0.00949 µM
[28] = second compound 10 µM, first compound 0.03 µM
[29] = second compound 10 µM, first compound 0.0949 µM
[30] = second compound 10 µM, first compound 0.3 µM
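Further: spheroids exposed to agents for 7 days before readout.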
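Wherever viability, T/C is given: 100% = DMSO vehicle control wells.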

Compound `CC1(C)CCC(CN2CCN(c3ccc(C(=O)NS(=O)(=O)c4ccc(NCC5CCOCC5)c([N+](=O)[O-])c4)c(Oc4cnc5[nH]ccc5c4)c3)CC2)=C(c2ccc(Cl)cc2)C1` + CC(CO)NC(=O)c1cc(-c2ccc(Cl)cc2)nn(-c2cnn(C)c2)c1=O has an IC50 (second compound 0.1 µM) greater than 10000 nM, an IC50 (second compound 0.316 µM) greater than 10000 nM and an IC50 (second compound 1 µM) greater than 10000 nM. The IC50 (second compound 3.16 µM) was greater than 10000 nM, the IC50 (second compound 10 µM) was greater than 10000 nM and the viability, T/C [1] was 96.8%. The viability, T/C [2] was 97.4%, the viability, T/C (second compound 0.1 µM, first compound 0.316 µM) was 90.6% and the viability, T/C (second compound 0.1 µM, first compound 1 µM) was 93.7%. For the same compound, the viability, T/C (second compound 0.1 µM, first compound 3.16 µM) was 106%, the viability, T/C (second compound 0.1 µM, first compound 10 µM) was 96.3% and the viability, T/C [3] was 110%. For the same compound, the viability, T/C [4] was 95%, the viability, T/C (second compound 0.316 µM, first compound 0.316 µM) was 93.1% and the viability, T/C (second compound 0.316 µM, first compound 1 µM) was 89%. It also gave a viability, T/C (second compound 0.316 µM, first compound 3.16 µM) of 90.3%, a viability, T/C (second compound 0.316 µM, first compound 10 µM) of 94.8% and a viability, T/C [5] of 92%. For the same compound, the viability, T/C [6] was 88.3%, the viability, T/C (second compound 1 µM, first compound 0.316 µM) was 98.1% and the viability, T/C (second compound 1 µM, first compound 1 µM) was 86%. For the same compound, the viability, T/C (second compound 1 µM, first compound 3.16 µM) was 91.9%, the viability, T/C (second compound 1 µM, first compound 10 µM) was 95.8% and the viability, T/C [7] was 89.8%. For the same compound, the viability, T/C [8] was 96.3%, the viability, T/C (second compound 3.16 µM, first compound 0.316 µM) was 107% and the viability, T/C (second compound 3.16 µM, first compound 1 µM) was 95.7%. It also gave a viability, T/C (second compound 3.16 µM, first compound 3.16 µM) of 98.9%, a viability, T/C (second compound 3.16 µM, first compound 10 µM) of 93.6% and a viability, T/C [9] of 95.4%. It also gave a viability, T/C [10] of 112%, a viability, T/C (second compound 10 µM, first compound 0.316 µM) of 93.1% and a viability, T/C (second compound 10 µM, first compound 1 µM) of 93.9%. For the same compound, the viability, T/C (second compound 10 µM, first compound 3.16 µM) was 95% and the viability, T/C (second compound 10 µM, first compound 10 µM) was 104%.
Compound `CCN(c1cc(-c2ccc(CN3CCOCC3)cc2)cc(C(=O)NCc2c(C)cc(C)[nH]c2=O)c1C)C1CCOCC1` + CC(CO)NC(=O)c1cc(-c2ccc(Cl)cc2)nn(-c2cnn(C)c2)c1=O has an IC50 (second compound 0.1 µM) greater than 3000 nM, an IC50 (second compound 0.316 µM) greater than 3000 nM and an IC50 (second compound 1 µM) greater than 3000 nM. The IC50 (second compound 3.16 µM) was greater than 3000 nM, the IC50 (second compound 10 µM) was greater than 3000 nM and the viability, T/C [11] was 103%. It also gave a viability, T/C [12] of 103%, a viability, T/C [13] of 99.6% and a viability, T/C [14] of 93.5%. The viability, T/C (second compound 0.1 µM, first compound 0.949 µM) was 93.8%, the viability, T/C (second compound 0.1 µM, first compound 3 µM) was 112% and the viability, T/C [15] was 97.6%. It also gave a viability, T/C [16] of 96.5%, a viability, T/C [17] of 103% and a viability, T/C [18] of 102%. The viability, T/C (second compound 0.316 µM, first compound 0.949 µM) was 90.5%, the viability, T/C (second compound 0.316 µM, first compound 3 µM) was 92.6% and the viability, T/C [19] was 104%. The viability, T/C [20] was 102%, the viability, T/C [21] was 107% and the viability, T/C [22] was 92.4%. It also gave a viability, T/C (second compound 1 µM, first compound 0.949 µM) of 94%, a viability, T/C (second compound 1 µM, first compound 3 µM) of 106% and a viability, T/C [23] of 84.4%. It also gave a viability, T/C [24] of 92.3%, a viability, T/C [25] of 103% and a viability, T/C [26] of 82.6%. It also gave a viability, T/C (second compound 3.16 µM, first compound 0.949 µM) of 92.7%, a viability, T/C (second compound 3.16 µM, first compound 3 µM) of 98.8% and a viability, T/C [27] of 105%. The viability, T/C [28] was 106%, the viability, T/C [29] was 91.7% and the viability, T/C [30] was 104%. For the same compound, the viability, T/C (second compound 10 µM, first compound 0.949 µM) was 101% and the viability, T/C (second compound 10 µM, first compound 3 µM) was 91.1%.
For `Cn1ncnc1C1c2n[nH]c(=O)c3cc(F)cc(c23)NC1c1ccc(F)cc1` (stereo not given) + CC(CO)NC(=O)c1cc(-c2ccc(Cl)cc2)nn(-c2cnn(C)c2)c1=O, the IC50 (second compound 0.1 µM) was greater than 100 nM, the IC50 (second compound 0.316 µM) was greater than 100 nM and the IC50 (second compound 1 µM) was greater than 100 nM. It also gave an IC50 (second compound 3.16 µM) greater than 100 nM, an IC50 (second compound 10 µM) greater than 100 nM and a viability, T/C (second compound 0.1 µM, first compound 0.000316 µM) of 90.7%. It also gave a viability, T/C (second compound 0.1 µM, first compound 0.001 µM) of 98%, a viability, T/C (second compound 0.1 µM, first compound 0.00316 µM) of 106% and a viability, T/C (second compound 0.1 µM, first compound 0.01 µM) of 95%. The viability, T/C [1] was 89.6%, the viability, T/C [2] was 86.8% and the viability, T/C (second compound 0.316 µM, first compound 0.000316 µM) was 85.5%. The viability, T/C (second compound 0.316 µM, first compound 0.001 µM) was 95.8%, the viability, T/C (second compound 0.316 µM, first compound 0.00316 µM) was 115% and the viability, T/C (second compound 0.316 µM, first compound 0.01 µM) was 88%. It also gave a viability, T/C [3] of 80.6%, a viability, T/C [4] of 84.8% and a viability, T/C (second compound 1 µM, first compound 0.000316 µM) of 94.1%. It also gave a viability, T/C (second compound 1 µM, first compound 0.001 µM) of 97.6%, a viability, T/C (second compound 1 µM, first compound 0.00316 µM) of 102% and a viability, T/C (second compound 1 µM, first compound 0.01 µM) of 87%. The viability, T/C [5] was 82.7%, the viability, T/C [6] was 91.8% and the viability, T/C (second compound 3.16 µM, first compound 0.000316 µM) was 93.9%. It also gave a viability, T/C (second compound 3.16 µM, first compound 0.001 µM) of 92.2%, a viability, T/C (second compound 3.16 µM, first compound 0.00316 µM) of 91.4% and a viability, T/C (second compound 3.16 µM, first compound 0.01 µM) of 92.1%. For the same compound, the viability, T/C [7] was 89.4%, the viability, T/C [8] was 93.4% and the viability, T/C (second compound 10 µM, first compound 0.000316 µM) was 83.7%. It also gave a viability, T/C (second compound 10 µM, first compound 0.001 µM) of 86.3%, a viability, T/C (second compound 10 µM, first compound 0.00316 µM) of 85% and a viability, T/C (second compound 10 µM, first compound 0.01 µM) of 99%. The viability, T/C [9] was 90.9% and the viability, T/C [10] was 83.1%.
`Nc1ncn(C2CC(O)C(CO)S2)c(=O)n1` (stereo not given) + CC(CO)NC(=O)c1cc(-c2ccc(Cl)cc2)nn(-c2cnn(C)c2)c1=O showed an IC50 (second compound 0.1 µM) greater than 300 nM, an IC50 (second compound 0.316 µM) greater than 300 nM and an IC50 (second compound 1 µM) greater than 300 nM. The IC50 (second compound 3.16 µM) was greater than 300 nM, the IC50 (second compound 10 µM) was greater than 300 nM and the viability, T/C (second compound 0.1 µM, first compound 0.000949 µM) was 93.7%. It also gave a viability, T/C (second compound 0.1 µM, first compound 0.003 µM) of 111%, a viability, T/C [11] of 102% and a viability, T/C [12] of 96%. It also gave a viability, T/C [13] of 96%, a viability, T/C [14] of 114% and a viability, T/C (second compound 0.316 µM, first compound 0.000949 µM) of 103%. For the same compound, the viability, T/C (second compound 0.316 µM, first compound 0.003 µM) was 92.9%, the viability, T/C [15] was 93% and the viability, T/C [16] was 88%. For the same compound, the viability, T/C [17] was 86.9%, the viability, T/C [18] was 95.1% and the viability, T/C (second compound 1 µM, first compound 0.000949 µM) was 92.4%. The viability, T/C (second compound 1 µM, first compound 0.003 µM) was 89.3%, the viability, T/C [19] was 91.7% and the viability, T/C [20] was 101%. It also gave a viability, T/C [21] of 87.7%, a viability, T/C [22] of 101% and a viability, T/C (second compound 3.16 µM, first compound 0.000949 µM) of 103%. The viability, T/C (second compound 3.16 µM, first compound 0.003 µM) was 95.7%, the viability, T/C [23] was 84.4% and the viability, T/C [24] was 88.3%. For the same compound, the viability, T/C [25] was 86.8%, the viability, T/C [26] was 92.9% and the viability, T/C (second compound 10 µM, first compound 0.000949 µM) was 95.5%. The viability, T/C (second compound 10 µM, first compound 0.003 µM) was 95.1%, the viability, T/C [27] was 91.2% and the viability, T/C [28] was 95.1%. For the same compound, the viability, T/C [29] was 93.4% and the viability, T/C [30] was 86.9%.
